Source: patent US7138361B2, “Herbicidal heterocycles” (E. I. du Pont de Nemours and Company, priority 2000, dated 2006)

What was measured:
Assay type in all cases: in vivo
[1] = tested on: blackgrass (Alopecurus myosuroides); assay: Test B postemergence
In short: (§1)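 Post-treatment, species sat 13–15 days under greenhouse conditions before visual scoring against controls, 0 (no effect) through 100 (complete control). Application preemergence to sown seeds or postemergence at 1- to 4-leaf stage, using a non-phytotoxic solvent/surfactant formulation.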

[2] = tested on: Surinam grass (Brachiaria decumbens); assay: Test B postemergence
In short: as §1

[3] = tested on: giant foxtail (Setaria faberii); assay: Test B postemergence
In short: as §1

[4] = tested on: barnyardgrass (Echinochloa crus-galli); assay: Test B postemergence
In short: as §1

[5] = tested on: pigweed (Amaranthus retroflexus); assay: Test B postemergence
In short: as §1

[6] = tested on: crabgrass (Digitaria sanguinalis); assay: Test B postemergence
In short: as §1

wild oat (Avena fatua) = assay: Test B postemergence
In short: as §1

[7] = tested on: velvetleaf (Abutilon theophrasti); assay: Test B postemergence
In short: as §1

[8] = tested on: morning glory (Ipomoea hederacea); assay: Test B postemergence
In short: as §1

[9] = tested on: lambsquarters (Chenopodium album); assay: Test B postemergence
In short: as §1

[10] = tested on: wheat (Triticum aestivum); assay: Test B postemergence
In short: as §1

[11] = tested on: cocklebur (Xanthium strumarium); assay: Test B postemergence
In short: as §1

corn (Zea mays) [12] = assay: Test B postemergence
In short: as §1

rice (Oryza saliva) = assay: Test B preemergence
In short: as §1

[13] = tested on: Surinam grass (Brachiaria decumbens); assay: Test B preemergence
In short: as §1

[14] = tested on: giant foxtail (Setaria faberii); assay: Test B preemergence
In short: as §1

[15] = tested on: barnyardgrass (Echinochloa crus-galli); assay: Test B preemergence
In short: as §1

[16] = tested on: pigweed (Amaranthus retroflexus); assay: Test B preemergence
In short: as §1

[17] = tested on: crabgrass (Digitaria sanguinalis); assay: Test B preemergence
In short: as §1

[18] = tested on: velvetleaf (Abutilon theophrasti); assay: Test B preemergence
In short: as §1

[19] = tested on: morning glory (Ipomoea hederacea); assay: Test B preemergence
In short: as §1

[20] = tested on: lambsquarters (Chenopodium album); assay: Test B preemergence
In short: as §1

[21] = tested on: cocklebur (Xanthium strumarium); assay: Test B preemergence
In short: as §1

corn (Zea mays) [22] = assay: Test B preemergence
In short: as §1

[23] = Rate 125 g/ha, scale 0 (no effect) to 100 (complete control), 13 to 15 days
[24] = Rate 250 g/ha, scale 0 (no effect) to 100 (complete control), 13 to 15 days
[25] = Rate 500 g/ha, scale 0 to 100, 0 is no effect, 100 is complete control, 13 to 15 days
[26] = Preemergence, Rate 500 g/ha, scale 0 to 100, 0 no effect, 100 complete control
[27] = preemergence, Rate 62 g/ha, scale of 0 to 100 where 0 is no effect and 100 is complete control, 13 to 15 days
[28] = preemergence, Rate 125 g/ha, scale 0 to 100, 0 no effect, 100 complete control
[29] = preemergence, Rate 250 g/ha, scale 0 to 100, 0 no effect, 100 complete control
[30] = Rate 62 g/ha, scale 0 to 100, 0 no effect, 100 complete control

CC1(C)CCc2cn(C3CCN(c4cccc(C(F)(F)F)c4)C3=O)nc21 (stereo not shown) [Compound 10]
80: Plant response rating, Foxtail, Giant [14, 27]
0: Plant response rating, Blackgrass [1, 23] | Plant response rating, Blackgrass [1, 24] | Plant response rating, Blackgrass [1, 25] | Plant response rating, Surinam grass [2, 23] | Plant response rating, Surinam grass [2, 24] | Plant response rating, Surinam grass [2, 25] | Plant response rating, Foxtail, Giant [3, 23] | Plant response rating, Foxtail, Giant [3, 24] | Plant response rating, Foxtail, Giant [3, 25] | Plant response rating, Barnyardgrass [4, 23] | Plant response rating, Barnyardgrass [4, 24] | Plant response rating, Barnyardgrass [4, 25] | Plant response rating, Pigweed [5, 23] | Plant response rating, Pigweed [5, 24] | Plant response rating, Pigweed [5, 25] | Plant response rating, Crabgrass [6, 23] | Plant response rating, Crabgrass [6, 24] | Plant response rating, Crabgrass [6, 25] | Plant response rating, Wild Oat (wild oat (Avena fatua); [23]) | Plant response rating, Wild Oat (wild oat (Avena fatua); [24]) | Plant response rating, Wild Oat (wild oat (Avena fatua); [25]) | Plant response rating, Velvetleaf [7, 23] | Plant response rating, Velvetleaf [7, 24] | Plant response rating, Velvetleaf [7, 25] | Plant response rating, Morningglory [8, 23] | Plant response rating, Morningglory [8, 24] | Plant response rating, Morningglory [8, 25] | Plant response rating, Lambsquarters [9, 23] | Plant response rating, Lambsquarters [9, 25] | Plant response rating, Wheat [10, 23] | Plant response rating, Wheat [10, 24] | Plant response rating, Wheat [10, 25] | Plant response rating, Cocklebur [11, 23] | Plant response rating, Cocklebur [11, 24] | Plant response rating, Cocklebur [11, 25] | Plant response rating, Corn (corn (Zea mays) [12]; [23]) | Plant response rating, Corn (corn (Zea mays) [12]; [24]) | Plant response rating, Corn (corn (Zea mays) [12]; [25]) | Plant response rating, Rice (rice (Oryza saliva); [26]) | Plant response rating, Rice (rice (Oryza saliva); [27]) | Plant response rating, Rice (rice (Oryza saliva); [28]) | Plant response rating, Rice (rice (Oryza saliva); [29]) | Plant response rating, Surinam grass [13, 26] | Plant response rating, Surinam grass [13, 28] | Plant response rating, Foxtail, Giant [14, 26] | Plant response rating, Foxtail, Giant [14, 28] | Plant response rating, Barnyardgrass [15, 26] | Plant response rating, Barnyardgrass [15, 27] | Plant response rating, Barnyardgrass [15, 28] | Plant response rating, Pigweed [16, 26] | Plant response rating, Pigweed [16, 28] | Plant response rating, Crabgrass [17, 26] | Plant response rating, Crabgrass [17, 28] | Plant response rating, Velvetleaf [18, 26] | Plant response rating, Velvetleaf [18, 27] | Plant response rating, Velvetleaf [18, 28] | Plant response rating, Velvetleaf [18, 29] | Plant response rating, Morningglory [19, 26] | Plant response rating, Morningglory [19, 27] | Plant response rating, Morningglory [19, 28] | Plant response rating, Morningglory [19, 29] | Plant response rating, Lambsquarters [20, 26] | Plant response rating, Lambsquarters [20, 28] | Plant response rating, Cocklebur [21, 26] | Plant response rating, Cocklebur [21, 28] | Plant response rating, Cocklebur [21, 29] | Plant response rating, Corn (corn (Zea mays) [22]; [26]) | Plant response rating, Corn (corn (Zea mays) [22]; [27]) | Plant response rating, Corn (corn (Zea mays) [22]; [28])
20: Plant response rating, Surinam grass [13, 27]
30: Plant response rating, Surinam grass [13, 29] | Plant response rating, Corn (corn (Zea mays) [22]; [29])
100: Plant response rating, Lambsquarters [9, 24] | Plant response rating, Foxtail, Giant [14, 29] | Plant response rating, Barnyardgrass [15, 29] | Plant response rating, Pigweed [16, 29] | Plant response rating, Crabgrass [17, 27] | Plant response rating, Crabgrass [17, 29] | Plant response rating, Lambsquarters [20, 27] | Plant response rating, Lambsquarters [20, 29]
90: Plant response rating, Pigweed [16, 27]

CCC(C)c1ccn(C2OCN(c3cccc(C(F)(F)F)c3)C2=O)n1 (stereo not shown) [Compound 24]
50: Plant response rating, Surinam grass [2, 25] | Plant response rating, Corn (corn (Zea mays) [12]; [25])
40: Plant response rating, Morningglory [8, 25] | Plant response rating, Cocklebur [11, 25]
70: Plant response rating, Barnyardgrass [4, 23]
80: Plant response rating, Foxtail, Giant [3, 25] | Plant response rating, Pigweed [5, 23] | Plant response rating, Surinam grass [13, 26]
60: Plant response rating, Crabgrass [6, 23]
100: Plant response rating, Barnyardgrass [4, 25] | Plant response rating, Pigweed [5, 25] | Plant response rating, Lambsquarters [9, 25] | Plant response rating, Foxtail, Giant [14, 26] | Plant response rating, Barnyardgrass [15, 26] | Plant response rating, Pigweed [16, 26] | Plant response rating, Pigweed [16, 28] | Plant response rating, Crabgrass [17, 26] | Plant response rating, Crabgrass [17, 28] | Plant response rating, Lambsquarters [20, 26] | Plant response rating, Lambsquarters [20, 28]
90: Plant response rating, Crabgrass [6, 25] | Plant response rating, Lambsquarters [9, 23] | Plant response rating, Foxtail, Giant [14, 28]
0: Plant response rating, Blackgrass [1, 23] | Plant response rating, Blackgrass [1, 25] | Plant response rating, Surinam grass [2, 23] | Plant response rating, Wild Oat (wild oat (Avena fatua); [23]) | Plant response rating, Wild Oat (wild oat (Avena fatua); [25]) | Plant response rating, Velvetleaf [7, 23] | Plant response rating, Velvetleaf [7, 25] | Plant response rating, Morningglory [8, 23] | Plant response rating, Wheat [10, 23] | Plant response rating, Wheat [10, 25] | Plant response rating, Corn (corn (Zea mays) [12]; [23]) | Plant response rating, Rice (rice (Oryza saliva); [26]) | Plant response rating, Rice (rice (Oryza saliva); [28]) | Plant response rating, Velvetleaf [18, 26] | Plant response rating, Velvetleaf [18, 28] | Plant response rating, Morningglory [19, 26] | Plant response rating, Morningglory [19, 28] | Plant response rating, Cocklebur [21, 26] | Plant response rating, Cocklebur [21, 28] | Plant response rating, Corn (corn (Zea mays) [22]; [28])
20: Plant response rating, Foxtail, Giant [3, 23] | Plant response rating, Cocklebur [11, 23] | Plant response rating, Surinam grass [13, 28] | Plant response rating, Barnyardgrass [15, 28] | Plant response rating, Corn (corn (Zea mays) [22]; [26])

CC(C)(C)c1ccn(C2OCN(c3cccc(C(F)(F)F)c3)C2=O)n1 (stereo not shown) [compound 9]
10: Plant response rating, Morningglory [8, 24] | Plant response rating, Cocklebur [11, 30]
90: Plant response rating, Foxtail, Giant [14, 29] | Plant response rating, Lambsquarters [20, 27]
70: Plant response rating, Pigweed [5, 30] | Plant response rating, Lambsquarters [9, 30] | Plant response rating, Surinam grass [13, 29]
80: Plant response rating, Pigweed [5, 24] | Plant response rating, Lambsquarters [9, 24] | Plant response rating, Pigweed [16, 27]
0: Plant response rating, Blackgrass [1, 30] | Plant response rating, Blackgrass [1, 24] | Plant response rating, Surinam grass [2, 30] | Plant response rating, Surinam grass [2, 24] | Plant response rating, Foxtail, Giant [3, 30] | Plant response rating, Foxtail, Giant [3, 24] | Plant response rating, Barnyardgrass [4, 30] | Plant response rating, Crabgrass [6, 30] | Plant response rating, Crabgrass [6, 24] | Plant response rating, Wild Oat (wild oat (Avena fatua); [30]) | Plant response rating, Wild Oat (wild oat (Avena fatua); [24]) | Plant response rating, Velvetleaf [7, 30] | Plant response rating, Velvetleaf [7, 24] | Plant response rating, Morningglory [8, 30] | Plant response rating, Wheat [10, 30] | Plant response rating, Wheat [10, 24] | Plant response rating, Corn (corn (Zea mays) [12]; [30]) | Plant response rating, Corn (corn (Zea mays) [12]; [24]) | Plant response rating, Rice (rice (Oryza saliva); [27]) | Plant response rating, Rice (rice (Oryza saliva); [29]) | Plant response rating, Surinam grass [13, 27] | Plant response rating, Barnyardgrass [15, 27] | Plant response rating, Crabgrass [17, 27] | Plant response rating, Velvetleaf [18, 27] | Plant response rating, Velvetleaf [18, 29] | Plant response rating, Morningglory [19, 27] | Plant response rating, Morningglory [19, 29] | Plant response rating, Cocklebur [21, 27] | Plant response rating, Cocklebur [21, 29] | Plant response rating, Corn (corn (Zea mays) [22]; [27]) | Plant response rating, Corn (corn (Zea mays) [22]; [29])
30: Plant response rating, Foxtail, Giant [14, 27]
60: Plant response rating, Barnyardgrass [4, 24] | Plant response rating, Barnyardgrass [15, 29]
100: Plant response rating, Pigweed [16, 29] | Plant response rating, Crabgrass [17, 29] | Plant response rating, Lambsquarters [20, 29]
20: Plant response rating, Cocklebur [11, 24]
